Measurements taken from patent US20240246960A1 (adMare Therapeutics Society, priority 2021, published 2024).
Like-named read-outs stand apart in the source and are kept apart here.

Experiments:
[1] = molecular target: T1, DNA-PK phosphorylation at Serine 2056 (Homo sapiens, UniProt P78527); assay: Cellular Assay for Inhibition of DNA-PK Phosphorylation at Serine 2056 (FaDu cells, neocarzinostatin, sandwich ELISA); assay type: cell-based; details: Table 1
T1 construct: host or cells: FaDu
Procedure, shortened: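 FaDu cells were pretreated with compound (0.3% DMSO) for 1 h, then exposed to neocarzinostatin at 1 μg/mL final for 2 h to induce DSBs. Protein-normalized lysates were assayed by MSD sandwich ELISA for total and pSer2056 DNA-PK. IC50 came from variable-slope fits of % inhibition relative to DMSO and NCS controls.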

[2] = molecular target: T2, pDNA-PK ser2056 induction in HCT116 spheroids (Homo sapiens, UniProt P78527); assay: Multicellular tumour spheroid + radiation, pDNA-PK inhibition, HCT116; assay type: cell-based; details: 20 Gy
T2 construct: endogenous in cells; host or cells: HCT116 multicellular tumour spheroids
Description: Multicellular tumour spheroids determination of compound inhibition of pDNA-PK induction following radiation. Tumour spheroids were grown to approximately 0.5 mm in diameter and irradiated with 20 Gy in combination with inhibitor test compounds to determine their potency. Inhibitor concentration for 50% reduction in pDNA-PK induction (IC50) was determined via immunohistochemical staining in spheroid cryosections taken 2 hours following radiation.
Spheroid, Cell Line: […], Immunohistochemical endpoint, pDNA-PK inhibition, EC50 in μm.
(§1) Spheroid+radiation pDNA-PK. Radiation: 20 Gy. Drug: serial dilution 5 or 10 μM down to 3.5 nM (11 wells). Spheroids: 3-6 spheroids per well (300-500 μm diameter). 20% O2 and 5% CO2. 96 well plate format.
Protocol: pre-incubate 1 hours with drug, irradiate with 20 Gy, post-incubate 2 hours with drug, freeze and cryosection ×3 replicates.
Endpoint: fluorescent immunostin pDNA-PK ser2056 and image on microscope.
Analysis: determine EC50 concentration that decreases pDNA-PK induction by 50% after radiation.
Multicellular tumour spheroids determination of compound inhibition of pDNA-PK induction following radiation. Tumour spheroids were grown to approximately 0.5 mm in diameter and irradiated with 20 Gy in combination with inhibitor test compounds to determine their potency. Inhibitor concentration for 50% reduction in pDNA-PK induction (IC50) was determined via immunohistochemical staining in spheroid cryosections taken 2 hours following radiation. For cell survival endpoint 8 Gy radiation was used and 3 hours following radiation spheroids were dissociated, counted and plated for colony forming endpoint.
as §1, with “format. Endpoint: fluorescent immunostain pDNA-PK ser2056 and image on microscope. Analysis: determine EC50 concentrations that decreases pDNA-PK induction […] after irradiation.” for “format.”
Multicellular tumour spheroids were used to determine potency of test compounds in a 3D tissue environment using inhibition of pDNA-PK induction following radiation or cell survival as the endpoint. For the pDNA-PK endpoint HCT116 or FaDU tumour spheroids were grown to approximately 0.5 mm in diameter and irradiated with 20 Gy in combination with inhibitor test compounds to determine their potency. Experiments were carried out in 96 well plates containing 0.7 mls of MEM media containing 10% FBS and 10 mM glucose under 20% O2 & 5% CO2 at 37° C. Following dilution of compounds 1:1000 from DMSO stocks, compounds were serially diluted from 10 μM down to 3.5 nM and 5-10 spheroids added. 96 well plates were constantly stirred to avoid spheroids settling during the course of the experiment. The inhibitor concentration for 50% reduction in pDNA-PK induction (EC50) was determined via immunohistochemical staining in spheroid cryosections taken 2 hours following radiation using anti-pDNA-PK (ser 2056) and fixed immediately in formalin following sectioning. For cell survival endpoint 8 Gy radiation was used and, 3 hours following radiation, spheroids were dissociated, counted and plated for colony forming endpoint. Data presented in the table compound potency as EC50 [μM].

DNA-PK = molecular target: T3, DNA-PK (Homo sapiens, UniProt P78527); assay: DNA-PK Assay for Biochemical Enzymatic Inhibition (ADP Glo Kinase assay); details: Table 1
T3 construct: purchased Invitrogen PR9107A
Description: A biochemical assay was performed to identify IC50 values against DNA-PK activity in a two-step reaction with a kinase reaction followed by ADP Glo™ Kinase assay Kit (Promega V9102).
Three-fold serial dilutions of compounds in DMSO were prepared in kinase assay buffer (50 mM HEPES pH 7.5, 20 mM MgCl2, 100 mM KCl, 50 μM DTT, 10 μg/ml calf thymus DNA, 0.01% Tween 20). Kinase assay buffer was used to prepare compound treatments to 0.02% DMSO (dimethyl sulphoxide) content. DMSO controls were prepared to produce a maximum and minimum luminescence signal for normalization. Substrate (Anaspec, AS-60210-5) and ATP (Promega V9102) and ATP mix was prepared by dilution in kinase assay buffer for 434.4 μM and 64.4 μM final assay concentrations, respectively. Compounds and control were added to 25 ng DNA-PK enzyme (Invitrogen, PR9107A) diluted in kinase buffer in assay plate (Corning 267459) and incubated for 15 minutes at room temperature prior to addition of substrate and ATP mix.
Throughout the assay, each time a reagent was added to the microplate, it was centrifuged for 1 minute at 1300 rcf. All reagents were added, and incubations carried out at room temperature. The reaction was then incubated for 60 minutes. ADP-ATP standards at 0, 4, 10, 40, 80, and 100% ADP (prepared as specified in the ADP Glo™ Kinase assay kit) were also added to the microplate at a volume equal to the total kinase reaction. The ADP Glo™ Kinase Assay kit was then used to quantify DNA-PK activity: following the 60-minute incubation, a 1:1 volume of ADP Glo reagent was added to all wells, then following a further 45-minute incubation, a 1:1 volume of Kinase Detection Reagent was added to all wells. After this two-step assay, plates were incubated in a Synergy-Neo2 plate reader for 30 minutes with gentle shaking, followed by endpoint luminescent read Luminescence data was normalized by subtracting the background signal and expressing all background-adjusted values as a percentage of the average maximum signal. The data was then expressed as percent inhibition by subtracting from 100% (i.e. maximum luminescent signal will be 0% inhibition) and the resulting data plotted against ten concentration points on a logarithmic scale, using GraphPad Prism. Non-linear regression analysis was performed on each concentration response curve and the log [inhibitor] vs response—variable slope (four parameters) equation was selected to generate IC50 values.

[3] = Example 7, spheroid, cell line HCT115 [sic], 20% O2, read-out: EC50 (pDNA-PK inhibition, immunohistochemical endpoint)
[4] = Example 8, spheroid, read-out: Cell line: HCT116 Immunohistochemical endpoint pDNA-PK inhibition EC50
[5] = Example 9 Study 2, 20% O2, read-out: Spheroid Cell line: HCT116 Immunohistochemical endpoint pDNA-PK inhibition EC50

| IC50 [1] [nM] | EC50 [2, 3] [nM] | EC50 [2, 4] [nM] | IC50 (DNA-PK) [nM] | EC50 [2, 5] [nM] | SMILES |
| --- | --- | --- | --- | --- | --- |
| 100 to 1000 | 1000 to 10000 | 1000 to 10000 | 1 to 10 |  | Cc1cn([C@H]2CC[C@@H](Oc3nc(N4CCOCC4)cc4ncccc34)CC2)nc1C(F)(F)F [Compound 17e, 4-(5-(((1s,4s)-4-(4-methyl-3-(trifluoromethyl)-1H-pyrazol-1-yl)cyclohexyl)oxy)-1,6-naphthyridin-7-yl)morpholine] |
| 10000 to 30000 | 10000 to 100000 | 10000 to 100000 | 1 to 10 |  | Cc1cnn([C@H]2CC[C@@H](Oc3nc(N4CCOCC4)cc4ncccc34)CC2)c1C(F)(F)F [Compound 17f, 4-(5-(((1s,4s)-4-(4-methyl-5-(trifluoromethyl)-1H-pyrazol-1-yl)cyclohexyl)oxy)-1,6-naphthyridin-7-yl)morpholine] |
| 1000 to 10000 | 10000 to 100000 | 10000 to 100000 | 1 to 10 | 10000 to 100000 | Cc1c(C(F)(F)F)cnn1[C@H]1CC[C@@H](Oc2nc(N3CCOCC3)cc3ncccc23)CC1 [Compound 17h, 4-(5-(((1s,4s)-4-(5-methyl-4-(trifluoromethyl)-1H-pyrazol-1-yl)cyclohexyl)oxy)-1,6-naphthyridin-7-yl)morpholine] |
| 10000 to 30000 | 1000 to 10000 | 1000 to 10000 | 1 to 10 | 1000 to 10000 | CCOCCOc1cnc(N[C@H]2CC[C@@H](Oc3nc(N4CCOCC4)cc4ncc(Br)cc34)CC2)nc1 [Compound 18b, N-((1s,4s)-4-((3-Bromo-7-morpholino-1,6-naphthyridin-5-yl)oxy)cyclohexyl)-5-(2-ethoxyethoxy)pyrimidin-2-amine] |
| 100 to 1000 | 1000 to 10000 |  | < 0.5 | 1000 to 10000 | Clc1nc(N[C@H]2CC[C@@H](Oc3nc(N4CCOCC4)cc4ncccc34)CC2)c2occc2n1 [Compound 80b, 2-chloro-N-((1s,4s)-4-((7-morpholino-1,6-naphthyridin-5-yl)oxy)cyclohexyl)furo[3,2-d]pyrimidin-4-amine] |

Continued, compound first:

| SMILES | IC50 [1] [nM] | EC50 [2, 3] [nM] | EC50 [2, 4] [nM] | IC50 (DNA-PK) [nM] | EC50 [2, 5] [nM] |
| --- | --- | --- | --- | --- | --- |
| Cn1ccc(N[C@H]2CC[C@@H](Oc3nc(N4CCOCC4)cc4ncccc34)CC2)n1 [Compound 30, 1-methyl-N-((1s,4s)-4-((7-morpholino-1,6-naphthyridin-5-yl)oxy)cyclohexyl)-1H-pyrazol-3-amine] | 100 to 1000 | 10000 to 100000 |  | 1 to 10 | 10000 to 100000 |
| CC(C)c1cnc(N[C@H]2CC[C@@H](Oc3nc(N4CCOCC4)cc4ncccc34)CC2)nc1 [Compound 33, 5-isopropyl-N-((1s,4s)-4-((7-morpholino-1,6-naphthyridin-5-yl)oxy)cyclohexyl)pyrimidin-2-amine] | < 100 | 1000 to 10000 |  | 1 to 10 | 1000 to 10000 |
| Cc1nccnc1N[C@H]1CC[C@@H](Oc2nc(N3CCOCC3)cc3ncccc23)CC1 [Compound 36, 3-methyl-N-((1s,4s)-4-((7-morpholino-1,6-naphthyridin-5-yl)oxy)cyclohexyl)pyrazin-2-amine] | 100 to 1000 | 1000 to 10000 |  | 0.5 to 1 | 1000 to 10000 |
| COc1nccnc1N[C@H]1CC[C@@H](Oc2nc(N3CCOCC3)cc3ncccc23)CC1 [Compound 39, 3-methoxy-N-((1s,4s)-4-((7-morpholino-1,6-naphthyridin-5-yl)oxy)cyclohexyl)pyrazin-2-amine] | 100 to 1000 | 1000 to 10000 |  | < 0.5 | 1000 to 10000 |
| Fc1cnc(N[C@H]2CC[C@@H](Oc3nc(N4CCOCC4)cc4ncccc34)CC2)nc1 [Compound 40, 5-fluoro-N-((1s,4s)-4-((7-morpholino-1,6-naphthyridin-5-yl)oxy)cyclohexyl)pyrimidin-2-amine] | 100 to 1000 | 1000 to 10000 |  | < 0.5 | 1000 to 10000 |
| Clc1cnc(N[C@H]2CC[C@@H](Oc3nc(N4CCOCC4)cc4ncccc34)CC2)nc1 [Compound 41, 5-chloro-N-((1s,4s)-4-((7-morpholino-1,6-naphthyridin-5-yl)oxy)cyclohexyl)pyrimidin-2-amine] | 100 to 1000 | 1000 to 10000 |  | 0.5 to 1 | 1000 to 10000 |
| Ic1cnc(N[C@H]2CC[C@@H](Oc3nc(N4CCOCC4)cc4ncccc34)CC2)nc1 [Compound 42, 5-iodo-N-((1s,4s)-4-((7-morpholino-1,6-naphthyridin-5-yl)oxy)cyclohexyl)pyrimidin-2-amine] | 100 to 1000 | 1000 to 10000 |  | 0.5 to 1 | 1000 to 10000 |
| FC(F)(F)c1ccnc(N[C@H]2CC[C@@H](Oc3nc(N4CCOCC4)cc4ncccc34)CC2)n1 [Compound 47, N-((1s,4s)-4-((7-morpholino-1,6-naphthyridin-5-yl)oxy)cyclohexyl)-4-(trifluoromethyl)pyrimidin-2-amine] | < 100 | 1000 to 10000 |  | 1 to 10 | 1000 to 10000 |
| CN(C)c1ccnc(N[C@H]2CC[C@@H](Oc3nc(N4CCOCC4)cc4ncccc34)CC2)n1 [Compound 50, N4,N4-dimethyl-N2-((1s,4s)-4-((7-morpholino-1,6-naphthyridin-5-yl)oxy)cyclohexyl)pyrimidine-2,4-diamine] | 100 to 1000 | 1000 to 10000 |  | 0.5 to 1 | 1000 to 10000 |
| O=C(O)c1cnc(N[C@H]2CC[C@@H](Oc3nc(N4CCOCC4)cc4ncccc34)CC2)nc1 [Compound 51, 2-(((1s,4s)-4-((7-morpholino-1,6-naphthyridin-5-yl)oxy)cyclohexyl)amino)pyrimidine-5-carboxylic acid] | 1000 to 10000 | 500 to 1000 |  | < 0.5 | 500 to 1000 |
